“Also recorded” adds a separate entry of the source.
How the values were obtained:
[1] = C57BL/6, mouse, in vivo, 2 h
Experimental: As described above, AMG 517, a representative reference drug as a TRPV1 antagonist, and the compound of Formula 1 of the present invention were tested for the increase in body temperature during transdermal administration.

[2] = Change in body temperature after oral administration in mice; type: in vivo, Balb/c mice; conditions: for change in body temperature, dose dependence: up to 4 hours, AMG 517 0.03, 0.1, 0.3 mg/kg, compound of Formula 1 3, 10, 30 mg/kg, FIGS. 2A, 2B
Excerpt: Meanwhile, when the same drug was orally administered, a concentration-dependent increase in body temperature due to TRPV1 antagonism was observed as expected (see FIGS. 2A and 2B).

[3] = Change in body temperature in healthy volunteers after percutaneous administration; type: in vivo, human; conditions: percutaneous application to back skin, 7 to 30 days
Excerpt: The composition of Example 1 including the compound of Formula 1 was percutaneously applied to healthy volunteers other than the patients with atopic dermatitis to check a change in body temperature.
The 24 healthy adult volunteers were divided into three groups, and the volunteers in each of the groups were then randomly allocated into a test group of 6 volunteers (Example 1) and a placebo group of 2 volunteers (Comparative Example 1). The same clinician applied the composition onto the volunteers' back skins at a dose of 5, 15, 50 mg per 5 g every morning according to a predetermined administration method. In this case, the composition was applied for 7, 15, 30 days with a size of 25×40 cm and an area of 1,000 cm^2.
A range of the body temperatures measured for the 24 volunteers in a clinical trial period was in a range of 35.4 to 37.3° C. The results of the changes in body temperatures from the baseline before the drug administration in each of the groups are as listed in the following Table 13.

[4] = Change in body temperature in healthy volunteers after oral administration; type: in vivo, human; conditions: oral 5 mg or 10 mg once a day for 8 days; healthy adult volunteers; FIGS. 6A, 6B
Experimental: Ten healthy adult volunteers were divided into two groups, and the compound of Formula 1 was orally administered to the volunteers in each of the groups at a dose of 5 mg or 10 mg once a day for 8 days. Thereafter, a placebo was administered to the two volunteers in each of the groups, and the body temperatures were measured for 14 days. Then, the mean body temperature of the volunteers and a change in body temperature were determined.

[5] = rats, oral dose of 3 mg/kg; cited from earlier work
[6] = rats; cited from earlier work
[7] = cited from earlier work

Row | increase in body temperature [1] [°C] | change in body temperature at lowest dose ([2]; 0.03 mg/kg) | Compound | change in body temperature, dose dependence [2] | clinically significant findings associated with changes in body temperature [3] | body temperature change, dose dependence [4] | body temperature increase [5] | effective concentration to maximize analgesic efficacy [6] | concentration dependence of hyperthermia ([7]; oral administration for treatment of dental pain/toothache) | body temperature increased to ([7]; oral, group administered a dose of 25 mg) [°C]
1 | ~0.84 |  | CCCc1nc(C(F)(F)F)ccc1/C=C/C(=O)N[C@H](C)c1cc(F)c(NS(C)(=O)=O)c(F)c1 [compound of Formula 1, (R)-N-[1-(3,5-difluoro-4-methanesulfonylamino-phenyl)-ethyl]-3-(2-propyl-6-trifluoromethyl-pyridin-3-yl)-acrylamide] | increased body temperature in a dose-dependent manner | such an increase in body temperature was not observed | increased the body temperature in a dose-dependent manner; also recorded: increased body temperature (hyperthermia) were caused in a concentration-dependent manner |  |  |  | 
2 | ~1.59 | significantly increased body temperature | CC(=O)Nc1nc2c(Oc3cc(-c4ccc(C(F)(F)F)cc4)ncn3)cccc2s1 [AMG 517] | increased body temperature in a dose-dependent manner |  |  | about 1.3 °C | less than 0.3 mg/kg | concentration-dependent side effect of hyperthermia; also recorded: increased body temperature, which was proportional to a serum AMG 517 concentration | 39.9
